Key:
Assay in all cases: relative viability (nuclei count vs DMSO), 5 days (fraction); higher = more cells survive
[1] = compound: CC(C)N(CCCNC(=O)Nc1ccc(C(C)(C)C)cc1)C[C@H]1O[C@@H](n2ccc3c(N)ncnc32)[C@H](O)[C@@H]1O + CCNC(=O)c1noc(-c2cc(C(C)C)c(O)cc2O)c1-c1ccc(CN2CCOCC2)cc1 [Luminespib] (partner 0.01 µM)
How it was run: (§1)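 Lung cancer cell lines were pin-tool dosed in 1536-well plates on the day after seeding, with either a lone drug or a fixed anchor-drug dose plus five library-drug doses (not always all listed) in √10 steps. Nuclei were counted on 4× images after 5 days. Relative viability is the ratio of treated-well to vehicle-well nuclei counts, with each value a median of duplicate plates.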

Shikonin + Phenformin = compound: CC(C)=CC[C@@H](O)C1=CC(=O)c2c(O)ccc(O)c2C1=O [Shikonin] + N=C(N)NC(=N)NCCc1ccccc1 [Phenformin] (partner 250 µM)
How it was run: as §1

Shikonin + OSI-027 = compound: CC(C)=CC[C@@H](O)C1=CC(=O)c2c(O)ccc(O)c2C1=O [Shikonin] + COc1cccc2cc(-c3nc([C@H]4CC[C@H](C(=O)O)CC4)n4ncnc(N)c34)[nH]c12 [OSI-027] (partner 0.5 µM)
How it was run: as §1

Shikonin + Linsitinib = compound: CC(C)=CC[C@@H](O)C1=CC(=O)c2c(O)ccc(O)c2C1=O [Shikonin] + C[C@]1(O)C[C@@H](c2nc(-c3ccc4ccc(-c5ccccc5)nc4c3)c3c(N)nccn32)C1 [Linsitinib] (partner 1 µM)
How it was run: as §1

Cell Line	relative viability ([1]; first compound 0.08 µM)	relative viability ([1]; first compound 0.253 µM)	relative viability ([1]; first compound 0.8 µM)	relative viability ([1]; first compound 2.53 µM)	relative viability ([1]; first compound 8 µM)	relative viability (Shikonin + Phenformin; first compound 0.01 µM)	relative viability (Shikonin + Phenformin; first compound 0.1 µM)	relative viability (Shikonin + Phenformin; first compound 0.3162 µM)	relative viability (Shikonin + Phenformin; first compound 1 µM)	relative viability (Shikonin + OSI-027; first compound 0.01 µM)	relative viability (Shikonin + OSI-027; first compound 0.1 µM)	relative viability (Shikonin + OSI-027; first compound 0.3162 µM)	relative viability (Shikonin + OSI-027; first compound 1 µM)	relative viability (Shikonin + Linsitinib; first compound 0.01 µM)	relative viability (Shikonin + Linsitinib; first compound 0.1 µM)	relative viability (Shikonin + Linsitinib; first compound 0.3162 µM)	relative viability (Shikonin + Linsitinib; first compound 1 µM)
NCI-H2009	0.977	0.861	1.08	1.02	0.884	0.475	0.568	0.433	0.181	0.687	0.622	0.52	0.257	1.23	1.25	1.14	0.848
SW 1573	0.348	–	0.356	0.172	0.194	0.389	0.388	0.325	0.122	0.564	0.518	0.443	0.258	0.968	0.772	0.887	0.626
NCI-H2347	0.578	0.321	0.245	0.371	0.555	0.488	0.384	0.31	0.313	0.444	0.425	0.391	0.398	0.976	0.987	1.07	0.977
EMC-BAC-2	1.16	1.15	1.22	1.24	1.13	0.516	0.607	0.569	0.517	0.38	0.399	0.39	0.386	0.8	0.836	0.839	0.855
NCI-H3122	0.0976	0.0883	0.117	0.0934	0.102	0.391	0.417	0.391	0.399	1.07	1.27	1.03	1.06	1.03	1.07	1.09	1.03
NCI-H358	0.441	0.235	0.384	0.0174	0.307	0.289	0.387	0.329	0.37	0.681	0.699	0.712	0.662	0.916	0.688	0.857	0.511
NCI-H1944	0.716	0.683	0.819	0.709	0.766	0.198	0.189	0.209	0.205	0.397	0.462	0.423	0.459	1.2	1.44	1.35	1.27
EPLC-272H	0.0863	0.265	0.268	0.46	0.232	0.282	0.309	0.255	0.298	0.271	0.274	0.279	0.259	1.18	1.32	1.2	1.17
NCI-H1915	0.757	0.819	0.676	0.789	0.77	0.383	0.396	0.368	0.395	0.615	0.737	0.634	0.595	1.05	1.16	1.15	1.09
NCI-H650	0.665	0.803	0.666	0.757	0.774	0.462	0.462	0.447	0.426	0.612	0.555	0.592	0.568	0.975	–	0.843	0.845
NCI-H441	0.39	0.334	–	0.278	0.368	0.941	1.03	0.761	0.815	0.539	0.831	0.619	0.624	0.618	0.573	0.578	0.516
NCI-H23	0.224	0.23	0.199	0.233	0.21	0.864	0.812	0.849	0.717	0.623	0.661	0.62	0.521	0.592	0.489	0.696	0.533
NCI-H661	0.936	0.966	0.947	0.975	0.957	0.251	0.292	0.275	0.291	0.685	0.774	0.782	0.842	0.724	0.575	0.656	0.546
SK-MES-1	0.693	0.723	0.929	0.872	0.717	0.747	0.677	0.72	0.638	0.694	0.493	0.742	0.519	1.18	1.06	1.04	1.08
NCI-H2087	0.211	0.198	0.276	0.16	0.151	0.458	0.484	0.447	0.463	0.602	0.616	0.66	0.502	1.27	1.3	0.927	0.839
NCI-H1993	0.707	–	–	0.927	0.84	0.504	0.579	0.555	0.499	0.558	0.522	0.561	0.582	–	0.732	0.681	0.672
PC-14	0.109	0.24	0.213	0.175	0.181	0.587	0.619	0.597	0.637	0.921	0.556	1.06	0.9	0.978	0.997	1.12	0.983
NCI-H460	0.0341	0.0252	0.0359	0.0291	0.0376	0.515	0.64	0.51	0.474	0.834	0.755	1.11	0.879	0.914	0.819	0.992	0.904
